We go through three compounds from US5840684A, “Glycopeptide antibiotic derivatives” (Eli Lilly and Company, priority 1995, dated 1998).

≈ marks a conversion by molar mass, not a printed value.

The test system of test [1] is vancomycin-resistant enterococci. The experiment in a line: broth micro-dilution, mean geometric MIC. It counts as cell-based, Enterococcus faecium and Enterococcus faecalis. The note with it: enterococci, 24-hour incubation. (In general: In broth dilution the organism is exposed to a series of concentrations in liquid medium.)
Test [2] has as its system vancomycin-susceptible enterococci. The experiment in a line: broth micro-dilution, mean geometric MIC. It counts as cell-based, Enterococcus faecium and Enterococcus faecalis. The note with it: enterococci, 24-hour incubation.
Test [3] concerns Staphylococcus aureus S13E. The class given is cell-based. As for the experimental part:
(§1) The MIC's were determined using a standard broth micro-dilution assay.

The subject of another test is Entercoccus faecium 2041. The experiment in a line: broth micro-dilution MIC. The note with it: Entercoccus faecium 2041. The class given is cell-based. The protocol:
(§2) The formula I compounds have in vitro and in vivo activity against Gram-positive pathogenic bacteria. The MIC's were determined using a standard broth micro-dilution assay.

The subject of test [4] is Staphylococcus epidermidis 270. Description: broth micro-dilution MIC. The class given is cell-based. The protocol: as §2
The subject of the next test is Entercoccus faecium 180. Description: broth micro-dilution MIC. The class given is cell-based. The note with it: Entercoccus faecium 180. As for the experimental part: as §2
Test [5] concerns Streptococcus pneumoniae P1. The experiment in a line: broth micro-dilution MIC. It counts as cell-based. The protocol:
as §2

Test [6] deals with Staphylococcus haemolyticus 415. The experiment in a line: broth micro-dilution MIC. The class given is cell-based. As for the experimental part:
as §2

Test [7] concerns Enterococcus gallinarum 245. The experiment in a line: broth micro-dilution MIC. The class given is cell-based. The note with it: Enterococcus gallinarum 245. The protocol:
as §2

Test [8] concerns Haemophilus influenzae RD. Description: broth micro-dilution MIC. The class given is cell-based. The note with it: Haemophilus influenzae RD. As for the experimental part: as §2
The subject of test [9] is Staphylococcus haemolyticus 105. The experiment in a line: broth micro-dilution MIC. It counts as cell-based. As for the experimental part:
as §2

Test [10] relates to Staphylococcus aureus X778. Description: broth micro-dilution MIC. The class given is cell-based. The protocol: as §1
Test [11] deals with Streptococcus pyogenes C203. Description: broth micro-dilution MIC. The class given is cell-based. The protocol: as §1
Test [12] concerns Staphylococcus aureus SA1199. Description: broth micro-dilution MIC. It counts as cell-based. As for the experimental part: as §1
The test system of test [13] is Staphylococcus aureus 447. The experiment in a line: broth micro-dilution MIC. It counts as cell-based. The protocol: as §1
In the next test the test system is Entercoccus faecium 276. The experiment in a line: broth micro-dilution MIC. It counts as cell-based. The protocol: as §1
The test system of test [14] is Entercoccus faecium 180-1. The experiment in a line: broth micro-dilution MIC. The class given is cell-based. The protocol: as §1
For test [15], the system named is Staphylococcus aureus SA1199B. The class given is cell-based. The protocol:
as §1

Test [16] has as its system Staphylococcus aureus 446. Description: broth micro-dilution MIC. It counts as cell-based. As for the experimental part: as §1
The test system of test [17] is Staphylococcus aureus SA1199A. Description: broth micro-dilution MIC. The class given is cell-based. The protocol: as §1
Test [18] relates to Staphylococcus aureus 491. The experiment in a line: broth micro-dilution MIC. The class given is cell-based. The protocol:
as §1

Test [19] relates to Staphylococcus aureus 489. Description: broth micro-dilution MIC. It counts as cell-based. As for the experimental part: as §1
For test [20], the system named is Staphylococcus aureus X400. Description: broth micro-dilution MIC. The class given is cell-based. The protocol: as §1

As for `CNC(CC(C)C)C(=O)NC1C(=O)NC(CC(N)=O)C(=O)NC2C(=O)NC3C(=O)NC(C(=O)NC(C(=O)O)c4cc(O)cc(O)c4-c4cc3ccc4O)C(OC3CC(C)(N)C(O)C(C)O3)c3ccc(c(Cl)c3)Oc3cc2cc(c3OC2OC(CO)C(O)C(O)C2OC2CC(C)(NCc3ccc(-c4ccc(C)cc4)cc3C)C(O)C(C)O2)Oc2ccc(cc2Cl)C1O` (stereo not shown) [Compound 222], in test [1], the “mean geometric MIC, Vancomycin Resistant Strains” value came out at 0.84 mg/L. Also, in test [2], the “mean geometric MIC, Vancomycin Sensitive Strains” value worked out at 0.072 mg/L. The MIC is not above 0.06 mg/L in test [3]; not above 0.06 mg/L in the test on Entercoccus faecium 2041; 0.5 mg/L (≈ 0.28 µM) in test [4]; not above 0.06 mg/L against Entercoccus faecium 180; not above 0.06 mg/L in [5]; 1 mg/L (≈ 0.56 µM) in [6]. Also, the MIC in test [7] was 1 mg/L (≈ 0.56 µM); in [8], 32 mg/L (≈ 17.9 µM); in test [9], 1 mg/L (≈ 0.56 µM); in test [10], not above 0.06 mg/L; in test [11], not above 0.06 mg/L; in [12], 1 mg/L (≈ 0.56 µM). Moreover, the results for the MIC (in [13]; against Entercoccus faecium 276; in test [14]) were 0.5 mg/L (≈ 0.28 µM), not above 0.06 mg/L and not above 0.06 mg/L, respectively.
On to `CNC(CC(C)C)C(=O)NC1C(=O)NC(CC(N)=O)C(=O)NC2C(=O)NC3C(=O)NC(C(=O)NC(C(=O)O)c4cc(O)cc(O)c4-c4cc3ccc4O)C(OC3CC(C)(N)C(O)C(C)O3)c3ccc(c(Cl)c3)Oc3cc2cc(c3OC2OC(CO)C(O)C(O)C2OC2CC(C)(NCc3ccc(-c4cccc(C)c4)cc3)C(O)C(C)O2)Oc2ccc(cc2Cl)C1O` (stereo not shown) [Compound 224], for which, in test [1], the “mean geometric MIC, Vancomycin Resistant Strains” value stood at 0.63 mg/L. Besides, the “mean geometric MIC, Vancomycin Sensitive Strains” value in [2] was 0.055 mg/L. Further, the MIC was 0.5 mg/L (≈ 0.282 µM) in test [15]; not above 0.06 mg/L against Entercoccus faecium 2041; not above 0.06 mg/L with Entercoccus faecium 180; not above 0.06 mg/L in [5]; 0.5 mg/L (≈ 0.282 µM) in test [6]; 0.5 mg/L (≈ 0.282 µM) in test [7]. The MIC in test [8] was 32 mg/L (≈ 18.1 µM); in test [9] it was 1 mg/L (≈ 0.564 µM); in test [11], not above 0.06 mg/L; in [16] it was 0.5 mg/L (≈ 0.282 µM); in [13], 0.5 mg/L (≈ 0.282 µM); against Entercoccus faecium 276, not above 0.06 mg/L. Further, the MIC in test [17] and in test [14] was not above 0.06 mg/L in each case.
As to `CNC(CC(C)C)C(=O)NC1C(=O)NC(CC(N)=O)C(=O)NC2C(=O)NC3C(=O)NC(C(=O)NC(C(=O)O)c4cc(O)cc(O)c4-c4cc3ccc4O)C(OC3CC(C)(N)C(O)C(C)O3)c3ccc(c(Cl)c3)Oc3cc2cc(c3OC2OC(CO)C(O)C(O)C2OC2CC(C)(NCc3cccc(Sc4ccc(C(C)(C)C)cc4)c3)C(O)C(C)O2)Oc2ccc(cc2Cl)C1O` (stereo not shown) [Compound 228], the “mean geometric MIC, Vancomycin Resistant Strains” value in test [1] was 1.0 mg/L. Also, in test [2], the “mean geometric MIC, Vancomycin Sensitive Strains” value is 0.14 mg/L. In addition, the MIC is 4 mg/L (≈ 2.17 µM) in test [15]; 8 mg/L (≈ 4.33 µM) in [3]; 0.25 mg/L (≈ 0.135 µM) with Entercoccus faecium 2041; 2 mg/L (≈ 1.08 µM) in test [4]; 1 mg/L (≈ 0.541 µM) against Entercoccus faecium 180; not above 0.06 mg/L in test [5]. Further, the MIC is 4 mg/L (≈ 2.17 µM) in [6]; 4 mg/L (≈ 2.17 µM) in test [7]; 2 mg/L (≈ 1.08 µM) in [9]; 4 mg/L (≈ 2.17 µM) in test [10]; 1 mg/L (≈ 0.541 µM) in test [18]; 0.125 mg/L (≈ 0.0677 µM) in test [11]. Besides, the MIC in [16] was 4 mg/L (≈ 2.17 µM); in [12], 4 mg/L (≈ 2.17 µM); in test [13], 4 mg/L (≈ 2.17 µM); in [19] it was 2 mg/L (≈ 1.08 µM); in the test on Entercoccus faecium 276, 1 mg/L (≈ 0.541 µM); in [20] it was 1 mg/L (≈ 0.541 µM). Besides, the MIC in [17] and in [14] was not above 0.06 mg/L throughout.
